Measurements reported in US6486199B1, “Spiro and dispiro 1,2,4-trioxolane antimalarials” (Medicines for Malaria Venture MMV International Centre …, priority 2001, dated 2002).
In brackets after ≈: the same amount, converted by molar mass. Read-outs that look alike come from different tables or passages of the source.

Legend:
[1] = tested on: chloroquine-sensitive NF54 strain of P. falciparum; test: in vitro screen against chloroquine-sensitive NF54 strain of P. falciparum; type: cell-based; conditions: for IC50: Plasmodium falciparum
[2] = tested on: chloroquine-resistant K1 strain of P. falciparum; test: in vitro screen against chloroquine-resistant K1 strain of P. falciparum; type: cell-based; conditions: for IC50: Plasmodium falciparum; for in vitro potency: strains not distinguished
[3] = differential scanning calorimetry (DSC), thermal stability; type: physicochemical; conditions: thermal decomposition
[4] = tested on: ANKA strain of P. Berghei; test: single dose STI in vivo screen in infected Moro SPF mice; conditions: for in vivo activity: 10 mg/kg po/sc data of Table 2; for Activity (%) po / Activity (%) sc: percent reduction in parasitemia day 3 post-infection; for inhibition in vivo at 10 mg/kg: Plasmodium berghei, 72 h; for antimalarial activity, overall assessment: overall judgement of in vitro and in vivo data of Table 2
Procedure: In the single dose STI in vivo screen, Moro SPF mice infected with the ANKA strain of P. Berghei (groups of three mice) were treated on day one post-infection with trioxolanes dissolved or suspended in 3% ethanol and 7% Tween 80. […] Antimalarial activity was measured by percent redution in parasitemia on day three post-infection and survival times compared to an untreated control group. Survival to day 30 post-infection is considered to be a cure.

[5] = tested on: P. berghei; test: 1-day Peters test against P. berghei in vivo; conditions: for ED50 / ED90: Plasmodium berghei, 24 h; for ED90: read-out: P. berghei (1 day) ED90 po
[6] = tested on: P. berghei; test: 4-day Peters test against P. berghei in vivo; conditions: for ED50: Plasmodium berghei, 96 h
[7] = NF54, read-out: IC50 (ng/ml) NF54
[8] = in vitro, NF54 strain, read-out: IC50 (ng/ml) NF54
[9] = in vitro, K1 strain, read-out: IC50 (ng/ml) K1
[10] = single 100 mg/kg po, survival to day 30 = cure
[11] = single 100 mg/kg sc, survival to day 30 = cure

## O=C(O)[C@H]1CC[C@@]2(CC1)OOC1(O2)C2CC3CC(C2)CC1C3 (stereo partly drawn) [OZ72, trans-Adamantane-2-spiro-3′-8′-carboxy-1′,2′,4′-trioxaspiro[4.5]decane]
[1]; in vitro, NF54 strain
  IC50 (ng/ml) NF54: 13 ng/mL (≈ 42.2 nM)
[2]; in vitro, K1 strain
  IC50 (ng/ml) K1: 15 ng/mL (≈ 48.6 nM)
[3]
  Tm dec. (° C.): 161.9 °C

## C1CC2(CCN1)OOC1(O2)C2CC3CC(C2)CC1C3.Cl (stereo not drawn) [OZ80, Adamantane-2-spiro-3′-1′,2′,4′-trioxa-8′-azaspiro[4.5]decane hydrochloride]
[1]; [7]
  IC50: 0.34 ng/mL
[2]; K1, read-out: IC50 (ng/ml) K1
  IC50: < 0.16 ng/mL
[2]; in vitro
  in vitro potency: quite potent
[3]
  Tm dec. (° C.): 129.8 °C
[4]
  in vivo activity: modest

## C[C@@H]1CC[C@H]2[C@@H](C)C(=O)O[C@@H]3O[C@@]4(C)CC[C@@H]1[C@]32OO4 [Artemisinin, artemisinin, reference compound]
[1]; [8]
  IC50: 1.9 ng/mL (≈ 6.73 nM)
[5]; 1 day, po, read-out: P. berghei (1 day) ED50 po
  ED50: 9.1 mg/kg
[5]; 1 day, po
  ED90: 14 mg/kg
[2]; [9]
  IC50: 1.2 ng/mL (≈ 4.25 nM)
[4]; single 10 mg/kg po
  Activity (%) po: 65%
  Survival (days) po: 6.5 days
[4]; single 10 mg/kg sc
  Activity (%) sc: 87%
  Survival (days) sc: 7.0 days
[4]; single 100 mg/kg po
  Activity (%) po: 98%
[4]; single 100 mg/kg sc
  Activity (%) sc: 100%
[4]; [10]
  Survival (days) po: 7.3 days
[4]; [11]
  Survival (days) sc: 14 days

## C1COC2(CCC3(CC2)OOC2(O3)C3CC4CC(C3)CC2C4)O1 (stereo not drawn) [OZ10, Adamantane-2-spiro-3′-1′,2′,4′,9′,12′-pentaoxadispiro[4.2.4.2]tetradecane]
[1]; [7]
  IC50: 0.67 ng/mL (≈ 2.08 nM)
[5]; 1 day, sc
  P. berghei (1 day) ED90 sc: 2.2 mg/kg
[5]; po, read-out: P. berghei (1 day) ED50 po
  ED50: 2.3 mg/kg
[5]; po
  ED90: 6.3 mg/kg
[5]; sc, read-out: P. berghei (1 day) ED50 sc
  ED50: 0.06 mg/kg
[2]; K1, read-out: IC50 (ng/ml) K1
  IC50: 0.4 ng/mL (≈ 1.24 nM)
[3]
  Tm dec. (° C.): 159.4 °C
[4]; po, read-out: Activity (%) po
  inhibition in vivo at 10 mg/kg: 99.6%
[4]; sc, read-out: Activity (%) sc
  inhibition in vivo at 10 mg/kg: 100%
[6]; 4 day, po
  P. berghei (4 day) ED90 po: 3.0 mg/kg
[6]; 4 day, sc
  P. berghei (4 day) ED90 sc: 0.9 mg/kg
[6]; po, read-out: P. berghei (4 day) ED50 po
  ED50: 1.3 mg/kg
[6]; sc, read-out: P. berghei (4 day) ED50 sc
  ED50: 0.5 mg/kg

## C1CCC2(CC1)OOC1(CCC3(CC1)OOC1(CCCCC1)O3)O2 (stereo not drawn) [OZ09, 7,12,19,20,23,24-Hexaoxatetraspiro[5.1.2.1.5.2.2.2]tetracosane]
[1]; [7]
  IC50: 39 ng/mL (≈ 115 nM)
[2]; K1, read-out: IC50 (ng/ml) K1
  IC50: 32 ng/mL (≈ 94 nM)
[3]
  Tm dec. (° C.): 196.5 °C
[4]
  antimalarial activity, overall assessment: less active

## CCOC(=O)CC1CCC2(CC1)OOC1(O2)C2CC3CC(C2)CC1C3 (stereo not drawn) [OZ61, Adamantane-2-spiro-3′-8′-ethoxycarbonylmethyl-1′,2′,4′-trioxaspiro[4.5]decane]
[1]; in vitro, NF54 strain
  IC50 (ng/ml) NF54: 0.53 ng/mL (≈ 1.51 nM)
[2]; in vitro, K1 strain
  IC50 (ng/ml) K1: 0.52 ng/mL (≈ 1.48 nM)
[3]
  Tm dec. (° C.): 161.7 °C
[4]
  in vivo activity: modest

## O=C(O)CC1CCC2(CC1)OOC1(O2)C2CC3CC(C2)CC1C3 (stereo not drawn) [OZ78, Adamantane-2-spiro-3′-8′-carboxymethyl-1′,2′,4′-trioxaspiro[4.5]decane]
[1]; in vitro, NF54 strain
  IC50 (ng/ml) NF54: >10/>10 ng/ml
[2]; in vitro, K1 strain
  IC50 (ng/ml) K1: >10/>10 ng/ml
[2]; in vitro
  in vitro potency: only weakly active
[3]
  Tm dec. (° C.): 157.5 °C
[4]
  in vivo activity: promising

## FC1CCCCC12OOC1(CCCCC1)O2 (stereo not drawn) [OZ06, 1-Fluoro-7,14,15-trioxadispiro[5.1.5.2]pentadecane]
[1]; [7]
  IC50: 22 ng/mL (≈ 95.5 nM)
[2]; K1, read-out: IC50 (ng/ml) K1
  IC50: 18 ng/mL (≈ 78.2 nM)
[4]
  antimalarial activity, overall assessment: less active
[4]; [10]
  Survival (days) po: 1.0/1.0 days
[4]; [11]
  Survival (days) sc: 1.0/1.0 days

## O=S1(=O)CCC2(CC1)OOC1(O2)C2CC3CC(C2)CC1C3 (stereo not drawn) [OZ50, Adamantane-2-spiro-3′-1′,2′,4′-trioxa-8′-thiaspiro[4.5]decane 8′,8′-dioxide]
[1]; [8]
  IC50: 1.2 ng/mL (≈ 3.82 nM)
[2]; [9]
  IC50: 1.1 ng/mL (≈ 3.5 nM)
[3]
  Tm dec. (° C.): 147.1 °C

## O=C(NN=C1CCC2(CC1)OOC1(O2)C2CC3CC(C2)CC1C3)Nc1ccccc1 (stereo not drawn) [OZ30, Adamantane-2-spiro-3′-1′,2′,4′-trioxaspiro[4.5]decan-8′-one 4-phenylsemicarbazone]
[1]; [7]
  IC50: 1.3 ng/mL (≈ 3.16 nM)
[2]; K1, read-out: IC50 (ng/ml) K1
  IC50: 0.65 ng/mL (≈ 1.58 nM)
[2]; in vitro, K1 and NF54 strains not distinguished, read-out: IC50
  IC50: < 5 ng/mL
[3]
  Tm dec. (° C.): 174.8 °C
[6]; 4 day, po
  P. berghei (4 day) ED90 po: <10/>10 mg/kg
[6]; 4 day, po, read-out: P. berghei (4 day) ED50 po
  ED50: < 10 mg/kg

## Fc1ccc(C2(c3ccc(F)cc3)OOC3(CCC(c4ccccc4)CC3)O2)cc1 (stereo not drawn) [OZ66, 3,3-Bis(4-fluorophenyl)-8-phenyl-1,2,4-trioxaspiro[4.5]decane]
[1]; [8]
  IC50: 36 ng/mL (≈ 88.1 nM)
[2]; [9]
  IC50: 44 ng/mL (≈ 108 nM)
[3]
  Tm dec. (° C.): 198.5 °C
[4]
  antimalarial activity, overall assessment: completely inactive
[4]; single 10 mg/kg po
  Activity (%) po: 0/0%
[4]; single 10 mg/kg sc
  Activity (%) sc: 0/0%
